Measurements: patent US8962830B2, “Protein kinase inhibitors and methods of treatment” (The Walter and Eliza Hall Institute of Medical Research, priority 2010, dated 2015)

Target: T1, Src recombinant enzyme, N-terminally His6 tagged full-length human protein (Homo sapiens, UniProt P12931)
T1 construct: Src recombinant enzyme was purchased as N-terminally His6 tagged full-length human protein; His6 (N); purchased
Test: SRC kinase inhibition assay (AlphaScreen)
Type: biochemical
Conditions: 80 μM ATP, 90 minutes at 30 degree Celsius
Method: Protocol for SRC Kinase Inhibition Assay. Compounds of the invention were tested for in vitro activity in the following assay: A biotin labeled peptide was used as substrate (amino acid sequence: Biotin-[…]). Src recombinant enzyme was purchased as N-terminally His6 tagged full-length human protein. The 15 μL assay reactions were run in Greiner brand white 384-well low volume plates. […] Compounds were added in a volume of 100 nL from dilution series made up in DMSO, positive and negative control reactions receiving the same volume DMSO without compounds. The plates were sealed with adhesive seals and incubated for 90 minutes at 30 degree Celsius. The reactions were stopped with the detection reagents added at the same time. Product formation was quantified as photochemiluminescence between PerkinElmer AlphaScreenTM beads, using Streptavidin-coated donor and anti-phosphotyrosine (P-[…]) acceptor beads. […] Plates were incubated for 5 hours before being read on a PerkinElmer EnVisionTM plate reader in HTS AlphascreenTM mode. IC50 values were obtained by calculating percent inhibition (% I) for each reaction relative to controls on the same plate (% [SMILES] where CN/CP are the averages of the negative/positive reactions, respectively), then fitting the % I data vs. compound concentration [I] to % I=([…])))) where A is the lower asymptote, B is the upper asymptote, C is the IC50 value, and D is the slope factor.

T1 sequence (P12931 whole entry): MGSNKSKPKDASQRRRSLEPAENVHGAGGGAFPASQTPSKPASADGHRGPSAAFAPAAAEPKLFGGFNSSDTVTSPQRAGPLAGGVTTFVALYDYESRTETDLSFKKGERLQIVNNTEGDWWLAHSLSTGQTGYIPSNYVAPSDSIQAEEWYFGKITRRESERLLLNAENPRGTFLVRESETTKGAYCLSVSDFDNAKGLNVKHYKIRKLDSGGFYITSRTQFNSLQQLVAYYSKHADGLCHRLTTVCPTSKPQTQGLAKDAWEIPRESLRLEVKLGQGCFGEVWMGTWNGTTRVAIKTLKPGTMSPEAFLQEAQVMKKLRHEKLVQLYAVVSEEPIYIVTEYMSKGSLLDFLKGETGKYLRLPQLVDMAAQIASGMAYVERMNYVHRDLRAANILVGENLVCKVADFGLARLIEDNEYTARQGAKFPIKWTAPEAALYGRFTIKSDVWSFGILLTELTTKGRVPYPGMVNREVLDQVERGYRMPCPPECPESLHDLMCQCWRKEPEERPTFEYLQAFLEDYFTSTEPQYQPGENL

Row | IC50 [nM] | Structure (SMILES)
1 | 100 to 1000 | CNCC(C)(C)n1nc(-c2ccc(C)cc2)c2c(N)ncnc21 [4 (compound 4C)]
2 | 1 to 100 | Cc1ccc(-c2nn(C(C)(C)CNC(=N)N)c3ncnc(N)c23)cc1 [5 (compound 5B)]
3 | 1 to 100 | Cc1ccc(-c2nn(C(C)(C)CNC(N)=S)c3ncnc(N)c23)cc1 [6 (compound 6B)]
4 | 1 to 100 | Cc1ccc(-c2nn(C(C)(C)CNC(=O)c3ccc(CCN)cc3)c3ncnc(N)c23)cc1 [10 (compound 10C)]
5 | 1 to 100 | Cc1ccc(-c2nn(C(C)(C)CNC(=O)c3ccc(CN)cc3)c3ncnc(N)c23)cc1 [13 (compound 13C)]
6 | 100 to 1000 | Cc1ccc(-c2nn(C(C)(C)CNS(=O)(=O)c3ccccn3)c3ncnc(N)c23)cc1 [68 (compound 68B)]
7 | 1 to 100 | Cc1ccc(-c2nn(C(C)(C)CNC(=O)c3cc(N4CCCCC4)ccn3)c3ncnc(N)c23)cc1 [69 (compound 69C)]
8 | 100 to 1000 | Cc1ccc(-c2nn(C(C)(C)CNC(=O)c3cc(N4CCOCC4)ccn3)c3ncnc(N)c23)cc1 [70 (compound 70C)]
9 | 100 to 1000 | Cc1ccc(-c2nn(C(C)(C)CNC(=O)CCCCCN)c3ncnc(N)c23)cc1 [84 (compound 84C)]
10 | 100 to 1000 | Cc1ccc(-c2nn(C(C)(C)CNC(=O)CCCN)c3ncnc(N)c23)cc1 [85 (compound 85C)]
11 | 100 to 1000 | CC(=O)NCC(C)(C)n1nc(-c2ccc(C)cc2)c2c(N)ncnc21 [Example 2]
12 | 1000 to 10000 | Cc1ccc(-c2nn(C(C)(C)CN(C)C)c3ncnc(N)c23)cc1 [Example 3]
13 | 1 to 100 | CCNC(=O)NCC(C)(C)n1nc(-c2ccc(C)cc2)c2c(N)ncnc21 [Example 7]
14 | 100 to 1000 | Cc1ccc(-c2nn(C(C)(C)CNC(C)C)c3ncnc(N)c23)cc1 [Example 8]
15 | 1000 to 10000 | Cc1ccc(-c2nn(C(C)(C)CNC(=O)Cc3ccccc3)c3ncnc(N)c23)cc1 [Example 9]
16 | 100 to 1000 | Cc1ccc(-c2nn(C(C)(C)CNC(=O)c3ccccc3-n3ccnc3)c3ncnc(N)c23)cc1 [Example 14]
17 | 100 to 1000 | Cc1ccc(-c2nn(C(C)(C)CNC(=O)CCCCCNC(=O)OCc3ccccc3)c3ncnc(N)c23)cc1 [Example 15]
18 | 1000 to 10000 | CC(=O)CCC(=O)NCC(C)(C)n1nc(-c2ccc(C)cc2)c2c(N)ncnc21 [Example 16]
19 | 1 to 100 | COCCC(=O)NCC(C)(C)n1nc(-c2ccc(C)cc2)c2c(N)ncnc21 [Example 17]
20 | 100 to 1000 | Cc1ccc(-c2nn(C(C)(C)CNC(=O)c3cccc(N4CCOCC4)c3)c3ncnc(N)c23)cc1 [Example 18]
21 | 1 to 100 | Cc1ccc(-c2nn(C(C)(C)CNC(=O)CC#N)c3ncnc(N)c23)cc1 [Example 19]
22 | 100 to 1000 | Cc1ccc(-c2nn(C(C)(C)CNC(=O)CCCc3ccccc3)c3ncnc(N)c23)cc1 [Example 20]

Row | IC50 [nM] | Structure (SMILES)
23 | 100 to 1000 | Cc1ccc(-c2nn(C(C)(C)CNC(=O)c3ccc(N4CCCCC4)cc3)c3ncnc(N)c23)cc1 [Example 21]
24 | 100 to 1000 | Cc1ccc(-c2nn(C(C)(C)CNC(=O)c3cccc(N4CCCCC4)c3)c3ncnc(N)c23)cc1 [Example 22]
25 | 1 to 100 | Cc1ccc(-c2nn(C(C)(C)CNC(=O)c3cc(-c4ccco4)on3)c3ncnc(N)c23)cc1 [Example 23]
26 | 1000 to 10000 | Cc1ccc(-c2nn(C(C)(C)CNC(=O)c3cc(-c4ccc(F)cc4)ncn3)c3ncnc(N)c23)cc1 [Example 24]
27 | 1000 to 10000 | CC(=O)c1ccc(OCC(=O)NCC(C)(C)n2nc(-c3ccc(C)cc3)c3c(N)ncnc32)cc1 [Example 25]
28 | 1 to 100 | Cc1ccc(-c2nn(C(C)(C)CNC(=O)c3cnn(-c4cccc(Cl)c4)c3C(F)(F)F)c3ncnc(N)c23)cc1 [Example 26]
29 | 100 to 1000 | Cc1ccc(-c2nn(C(C)(C)CNC(=O)c3cc(C)nn3Cc3ccc(F)cc3)c3ncnc(N)c23)cc1 [Example 27]
30 | 1 to 100 | Cc1ccc(-c2nn(C(C)(C)CNC(=O)c3cnn(-c4ccc(F)cc4)c3C(F)(F)F)c3ncnc(N)c23)cc1 [Example 28]
31 | 100 to 1000 | Cc1ccc(-c2nn(C(C)(C)CNC(=O)c3cnn(-c4ccc(Br)cc4)c3C(F)(F)F)c3ncnc(N)c23)cc1 [Example 29]
32 | 100 to 1000 | CC(=O)CCCCC(=O)NCC(C)(C)n1nc(-c2ccc(C)cc2)c2c(N)ncnc21 [Example 30]
33 | 100 to 1000 | CC(=O)CCCC(=O)NCC(C)(C)n1nc(-c2ccc(C)cc2)c2c(N)ncnc21 [Example 31]
34 | 100 to 1000 | CCOc1ccc(C(=O)NCC(C)(C)n2nc(-c3ccc(C)cc3)c3c(N)ncnc32)cc1Cl [Example 32]
35 | 100 to 1000 | Cc1ccc(-c2nn(C(C)(C)CNC(=O)c3cccn3C)c3ncnc(N)c23)cc1 [Example 33]
36 | 100 to 1000 | Cc1ccc(-c2nn(C(C)(C)CNC(=O)c3cccc(C#N)c3)c3ncnc(N)c23)cc1 [Example 34]
37 | 100 to 1000 | Cc1ccc(-c2nn(C(C)(C)CNC(=O)CCCOCc3ccccc3)c3ncnc(N)c23)cc1 [Example 35]
38 | 100 to 1000 | Cc1ccc(-c2nn(C(C)(C)CNC(=O)CCCc3ccc4c(c3)OCCO4)c3ncnc(N)c23)cc1 [Example 36]
39 | 100 to 1000 | Cc1ccc(-c2nn(C(C)(C)CNC(=O)CCN3CCOCC3)c3ncnc(N)c23)cc1 [Example 37]
40 | 100 to 1000 | CCN(CC)c1ccc(C(=O)NCC(C)(C)n2nc(-c3ccc(C)cc3)c3c(N)ncnc32)cc1 [Example 38]
41 | 100 to 1000 | Cc1ccc(-c2nn(C(C)(C)CNC(=O)CCOc3ccccc3)c3ncnc(N)c23)cc1 [Example 39]
42 | 100 to 1000 | Cc1ccc(-c2nn(C(C)(C)CNC(=O)c3cccc(Br)n3)c3ncnc(N)c23)cc1 [Example 40]
43 | 100 to 1000 | Cc1ccc(-c2nn(C(C)(C)CNC(=O)c3cccc(F)n3)c3ncnc(N)c23)cc1 [Example 41]
44 | 100 to 1000 | Cc1ccc(-c2nn(C(C)(C)CNC(=O)c3ccnc(Cl)c3)c3ncnc(N)c23)cc1 [Example 43]

Row | IC50 [nM] | Structure (SMILES)
45 | 100 to 1000 | Cc1ccc(-c2nn(C(C)(C)CNC(=O)c3ccnc(Cl)n3)c3ncnc(N)c23)cc1 [Example 44]
46 | 1000 to 10000 | Cc1ccc(-c2nn(C(C)(C)CNC(=O)c3ccc(Br)cn3)c3ncnc(N)c23)cc1 [Example 45]
47 | 100 to 1000 | Cc1ccc(-c2nn(C(C)(C)CNC(=O)c3ccnnc3)c3ncnc(N)c23)cc1 [Example 46]
48 | 100 to 1000 | Cc1ccc(-c2nn(C(C)(C)CNC(=O)c3ccc(Cl)nc3Cl)c3ncnc(N)c23)cc1 [Example 47]
49 | 100 to 1000 | Cc1ccc(-c2nn(C(C)(C)CNC(=O)c3nc(Cl)ccc3Cl)c3ncnc(N)c23)cc1 [Example 48]
50 | 1000 to 10000 | Cc1ccc(-c2nn(C(C)(C)CNC(=O)c3nc(Cl)ccc3Br)c3ncnc(N)c23)cc1 [Example 49]
51 | 100 to 1000 | Cc1ccc(-c2nn(C(C)(C)CNC(=O)c3cnc4ccccc4n3)c3ncnc(N)c23)cc1 [Example 51]
52 | 100 to 1000 | Cc1ccc(-c2nn(C(C)(C)CNC(=O)c3ccc(F)cc3)c3ncnc(N)c23)cc1 [Example 53]
53 | 100 to 1000 | Cc1ccc(-c2nn(C(C)(C)CNC(=O)c3ccccc3F)c3ncnc(N)c23)cc1 [Example 54]
54 | 1000 to 10000 | Cc1ccc(-c2nn(C(C)(C)CNC(=O)c3cccc(F)c3)c3ncnc(N)c23)cc1 [Example 55]
55 | 1 to 100 | Cc1ccc(-c2nn(C(C)(C)CNC(=O)c3ncccn3)c3ncnc(N)c23)cc1 [Example 58]
56 | 1000 to 10000 | Cc1ccc(-c2nn(C(C)(C)CNC(=O)c3ccncc3)c3ncnc(N)c23)cc1 [Example 67]
57 | 1 to 100 | Cc1ccc(-c2nn(C(C)(C)CNC(=O)c3ccc(C)cn3)c3ncnc(N)c23)cc1 [Example 72]
58 | 100 to 1000 | Cc1ccc(-c2nn(C(C)(C)CNC3=NCCN3)c3ncnc(N)c23)cc1 [Example 78]
59 | 100 to 1000 | CC(=N)NCC(C)(C)n1nc(-c2ccc(C)cc2)c2c(N)ncnc21 [Example 80]
60 | 1 to 100 | Cc1ccc(-c2nn(C(C)(C)CNC(=N)NC#N)c3ncnc(N)c23)cc1 [Example 81]
61 | 1 to 100 | Cc1ccc(-c2nn(C(C)(C)CNC(=O)c3cc(CN4CCCCC4)ccn3)c3ncnc(N)c23)cc1 [Example 82]
62 | 1 to 100 | Cc1ccc(-c2nn(C(C)(C)CNC(=O)c3cc(CN4CCOCC4)ccn3)c3ncnc(N)c23)cc1 [Example 83]
63 | 100 to 1000 | Cc1ccc(-c2nn(C(C)(C)CNc3ncccn3)c3ncnc(N)c23)cc1 [Example 88]
64 | 1 to 100 | COCCOc1ccnc(C(=O)NCC(C)(C)n2nc(-c3ccc(C)cc3)c3c(N)ncnc32)c1 [Example 89]
